From paper PMC8662641, “Site-Specific Labeling of Endogenous Proteins Using CoLDR Chemistry” (Journal of the American Chemical Society, 2021)

Tested on: Mino cells
Assay: Pull-down proteomics in Mino cells
Assay type: cell-based, human
Procedure: The cells were lysed and “clicked” with biotin-azide, and the samples were incubated at room temperature for 1 h. The samples were then precipitated with methanol–chloroform (1 mL of methanol, 250 μL of chloroform, 750 μL of water), washed with 1 mL of methanol, and air-dried. The samples were solubilized, bound to streptavidin agarose beads in PBS for 3 h at 25 °C. The beads were washed, centrifuged, resuspended in Tris 50 mM pH 8, and transferred to a clean Eppendorf tube. After this, the bound proteins were eluted by boiling with 5% SDS then reduced with DTT, alkylated with iodoacetamide, and digested with trypsin. The samples were run on LC/MS/MS. The detailed procedure is available in the Supplementary Methods Section. […]
Pull-down proteomics experiments
1b or DMSO. The cells were spun down, washed with cold PBS and frozen. Then, each sample was lysed in 200 ul of RIPA for 15 minutes on ice and centrifuged at 20000 g at 4 °C. The protein in the supernatant was quantified using BCA. For each sample, […] of 1.65 mg/ml was prepared.
At this point, 5 ul of 5 mM biotin azide and 9 ul of 100 mM CuSO4:THPTA complex were added.
The click reaction was initiated by the addition of 7.5 ul of 150 mM sodium ascorbate, and the samples are incubated at room temperature for 1 hour. The samples were then precipitated with methanol: chloroform (1 ml methanol, 250 l chloroform, 750 l water), washed with 1 ml of methanol, and air dried. The dry pellet was resuspended in 1.2% SDS in PBS (250 l), sonicated as described before, and heated to 90 °C for 5 minutes. The samples were then diluted to 1.5 ml with PBS, and 50 ul of streptavidin agarose beads, prewashed with 0.2% SDS in PBS, were added, followed by 3 hour incubation at room temperature. Following the incubation, the beads were centrifuged 2 minutes 2000 g, and washed 4 times, with the following buffers (4 ml in each wash):
2% SDS; 0.1% sodium deoxycholate, 1% Triton X-100, 0.5 M NaCl, 1 mM EDTA, 50 mM HEPES pH = 7.5; 0.25 M NaCl, 0.5% IGEPAL, 0.5% sodium deoxycholate, 1 mM EDTA, 10 mM Tris pH = 8.1; 50 mM Tris pH = 7.4, 50 mM NaCl. The beads were then resuspended in Tris 50 mM pH = 8 and transferred to a clean Eppendorf tube.
At this point, the buffer was removed to leave a volume of 100 ul, and 100 ul of Tris 50 mM pH 8 + 10% SDS was added, and the samples were heated to 96 °C for 5 minutes. The samples were then centrifuged and the denatured, eluted proteins were transferred to new tubes. Then, 7.5 ul of 0.1 M DTT was added, and samples were incubated at 65 °C for 45 minutes. After the samples had cooled, 7.5 ul of iodoacetamide (0.2 M) were added, and the samples were incubated in the dark for 40 minutes at room temperature. At this point 1/10 volume of 12% phosphoric acid was added, and the samples were diluted 6-fold with 90% methanol + 50 mM ammonium bicarbonate. The samples were then loaded on s-trap micro columns (Protify) and the columns […]
were washed 3 times with 150 ul of 90% methanol + 50 mM ammonium bicarbonate. Then, 20 ul of 0.05 g/l of trypsin in 50 mM ammonium bicarbonate were added to the columns, and the samples were incubated at 47 °C for 90 minutes. Then 40 ul of 50 mM ammonium bicarbonate was added, followed by centrifugation and addition of 1 ul of 0.5 g/l trypsin to the eluate, which was incubated at 37C overnight. The column itself was then eluted using 40 ul of 0.2% formic acid and 40 ul 0.2% formic acid in 50% acetonitrile into a separate tube, which was kept at 4 °C. The two eluates were then combined and evaporated before running on LC/MS/MS.
Running samples on LC/MS/MS:
ULC/MS grade solvents were used for all chromatographic steps. Each sample was loaded using split-less nano-Ultra Performance Liquid Chromatography (10 kpsi nanoAcquity; Waters, Milford, MA, USA). The mobile phase was: A) H2O + 0.1% formic acid and B) acetonitrile + 0.1% formic acid. Desalting of the samples was performed online using a reversed-phase Symmetry C18 […]

C#CCCNC(=O)C(=C)CN1CCC[C@@H](n2nc(-c3ccc(Oc4ccccc4)cc3)c3c(N)ncnc32)C1 [1b]
Log2(fold enrichment) (KPYM_HUMAN, 1b relative to pretreatment by ibrutinib): 0.1731 | Log2(fold enrichment) (KPYM_HUMAN, 1b relative to treatment with DMSO): 1.135 | Log2(fold enrichment) (LDHA_HUMAN, 1b relative to pretreatment by ibrutinib): 0.2369 | Log2(fold enrichment) (LDHA_HUMAN, 1b relative to treatment with DMSO): -0.2458 | Log2(fold enrichment) (LEG9C_HUMAN group, 1b relative to pretreatment by ibrutinib): 1.455 | Log2(fold enrichment) (LEG9C_HUMAN group, 1b relative to treatment with DMSO): -0.9819 | Log2(fold enrichment) (MCCA_HUMAN, 1b relative to pretreatment by ibrutinib): 0.4599 | Log2(fold enrichment) (MCCA_HUMAN, 1b relative to treatment with DMSO): -0.3745 | Log2(fold enrichment) (MMRN2_HUMAN, 1b relative to pretreatment by ibrutinib): -0.0371 | Log2(fold enrichment) (MMRN2_HUMAN, 1b relative to treatment with DMSO): 0.08276 | off-targets found in pull-down proteomics (Mino cells, 100 nM 1b): BLK, MCAT, and ADK | Log2(fold enrichment) (NEUM_HUMAN, 1b relative to pretreatment by ibrutinib): 2 | Log2(fold enrichment) (NEUM_HUMAN, 1b relative to treatment with DMSO): 0.3281 | Log2(fold enrichment) (NPM_HUMAN, 1b relative to pretreatment by ibrutinib): 1.109 | Log2(fold enrichment) (NPM_HUMAN, 1b relative to treatment with DMSO): 0.4515 | Log2(fold enrichment) (PIP_HUMAN, 1b relative to pretreatment by ibrutinib): 0.6558 | Log2(fold enrichment) (PIP_HUMAN, 1b relative to treatment with DMSO): -0.01924 | Log2(fold enrichment) (PLAK_HUMAN, 1b relative to pretreatment by ibrutinib): 0.152 | Log2(fold enrichment) (PLAK_HUMAN, 1b relative to treatment with DMSO): 1.616 | Log2(fold enrichment) (PRDX2_HUMAN group, 1b relative to pretreatment by ibrutinib): -0.09254 | Log2(fold enrichment) (PRDX2_HUMAN group, 1b relative to treatment with DMSO): -0.2676 | Log2(fold enrichment) (REL_HUMAN, 1b relative to pretreatment by ibrutinib): 1.348 | Log2(fold enrichment) (REL_HUMAN, 1b relative to treatment with DMSO): -0.2147 | Log2(fold enrichment) (RL13_HUMAN, 1b relative to pretreatment by ibrutinib): 0.7491 | Log2(fold enrichment) (RL13_HUMAN, 1b relative to treatment with DMSO): 0.2396 | Log2(fold enrichment) (RL15_HUMAN, 1b relative to pretreatment by ibrutinib): 0.2388 | Log2(fold enrichment) (RL15_HUMAN, 1b relative to treatment with DMSO): 0.9031 | Log2(fold enrichment) (RL18_HUMAN, 1b relative to pretreatment by ibrutinib): 0.6086 | Log2(fold enrichment) (RL18_HUMAN, 1b relative to treatment with DMSO): -0.373 | Log2(fold enrichment) (RL40_HUMAN group, 1b relative to pretreatment by ibrutinib): -1.022 | Log2(fold enrichment) (RL40_HUMAN group, 1b relative to treatment with DMSO): 0.218 | Log2(fold enrichment) (S10A8_HUMAN, 1b relative to pretreatment by ibrutinib): 0.2414 | Log2(fold enrichment) (S10A8_HUMAN, 1b relative to treatment with DMSO): 0.2312 | Log2(fold enrichment) (S10A9_HUMAN, 1b relative to pretreatment by ibrutinib): 0.07875 | Log2(fold enrichment) (S10A9_HUMAN, 1b relative to treatment with DMSO): 2.006 | Log2(fold enrichment) (SYFM_HUMAN, 1b relative to pretreatment by ibrutinib): 0.9276 | Log2(fold enrichment) (SYFM_HUMAN, 1b relative to treatment with DMSO): -1.069 | Log2(fold enrichment) (TBA1B_HUMAN group, 1b relative to pretreatment by ibrutinib): 0.8267 | Log2(fold enrichment) (TBA1B_HUMAN group, 1b relative to treatment with DMSO): 1.164 | Log2(fold enrichment) (TBB5_HUMAN group, 1b relative to pretreatment by ibrutinib): 1.023 | Log2(fold enrichment) (TBB5_HUMAN group, 1b relative to treatment with DMSO): 0.6602 | Log2(fold enrichment) (TGM3_HUMAN, 1b relative to pretreatment by ibrutinib): -0.2702 | Log2(fold enrichment) (TGM3_HUMAN, 1b relative to treatment with DMSO): 0.4648 | Log2(fold enrichment) (THIO_HUMAN, 1b relative to pretreatment by ibrutinib): 0.6478 | Log2(fold enrichment) (THIO_HUMAN, 1b relative to treatment with DMSO): 0.5583 | Log2(fold enrichment) (TPIS_HUMAN, 1b relative to pretreatment by ibrutinib): 1.866 | Log2(fold enrichment) (TPIS_HUMAN, 1b relative to treatment with DMSO): 2.762 | Log2(fold enrichment) (VDAC2_HUMAN, 1b relative to pretreatment by ibrutinib): 0.298 | Log2(fold enrichment) (VDAC2_HUMAN, 1b relative to treatment with DMSO): 2.794 | Log2(fold enrichment) (ZNT4_HUMAN, 1b relative to pretreatment by ibrutinib): 0.6391 | Log2(fold enrichment) (ZNT4_HUMAN, 1b relative to treatment with DMSO): 0.7876
